# Measured values reported in the NIST ThermoML archive (doi:10.1016/j.fluid.2006.03.015).
# ± gives the expanded uncertainty stated by the source.
# Experiment: molar heat capacity at constant pressure
# Conditions: 101.33 kPa, Liquid
# [1] = 320.15 K, Small sample (50 mg) DSC
# [2] = 325.15 K, Small sample (50 mg) DSC
# [3] = 328.15 K, modulated-temperature differential scanning calorimetry MDSC
# [4] = 330.15 K, Small sample (50 mg) DSC
# [5] = 333.15 K, modulated-temperature differential scanning calorimetry MDSC
# [6] = 335.15 K, Small sample (50 mg) DSC
# [7] = 338.15 K, modulated-temperature differential scanning calorimetry MDSC
# [8] = 340.15 K, Small sample (50 mg) DSC
# [9] = 343.15 K, modulated-temperature differential scanning calorimetry MDSC
# [10] = 345.15 K, Small sample (50 mg) DSC
# [11] = 348.15 K, modulated-temperature differential scanning calorimetry MDSC
# [12] = 348.18 K, Large sample (1 g) DSC
# [13] = 350.15 K, Small sample (50 mg) DSC
# [14] = 353.15 K, modulated-temperature differential scanning calorimetry MDSC
# [15] = 355.15 K, Small sample (50 mg) DSC
# [16] = 358.15 K, modulated-temperature differential scanning calorimetry MDSC
# [17] = 360.15 K, Small sample (50 mg) DSC
# [18] = 363.15 K, modulated-temperature differential scanning calorimetry MDSC
# [19] = 365.15 K, Small sample (50 mg) DSC
# [20] = 368.15 K, modulated-temperature differential scanning calorimetry MDSC
# [21] = 370.15 K, Small sample (50 mg) DSC
# [22] = 373.13 K, Large sample (1 g) DSC
# [23] = 373.15 K, modulated-temperature differential scanning calorimetry MDSC
# [24] = 375.15 K, Small sample (50 mg) DSC
# [25] = 378.15 K, modulated-temperature differential scanning calorimetry MDSC
# [26] = 380.15 K, Small sample (50 mg) DSC
# [27] = 383.15 K, modulated-temperature differential scanning calorimetry MDSC
# [28] = 385.15 K, Small sample (50 mg) DSC
# [29] = 388.15 K, modulated-temperature differential scanning calorimetry MDSC
# [30] = 390.15 K, Small sample (50 mg) DSC
# [31] = 393.15 K, modulated-temperature differential scanning calorimetry MDSC
# [32] = 395.15 K, Small sample (50 mg) DSC
# [33] = 398.15 K, modulated-temperature differential scanning calorimetry MDSC
# [34] = 400.15 K, Small sample (50 mg) DSC
# [35] = 403.15 K, modulated-temperature differential scanning calorimetry MDSC
# [36] = 405.15 K, Small sample (50 mg) DSC
# [37] = 408.15 K, modulated-temperature differential scanning calorimetry MDSC
# [38] = 410.15 K, Small sample (50 mg) DSC
# [39] = 413.15 K, modulated-temperature differential scanning calorimetry MDSC
# [40] = 415.15 K, Small sample (50 mg) DSC
# [41] = 420.15 K, Small sample (50 mg) DSC
# [42] = 425.15 K, Small sample (50 mg) DSC
compound,measurement,setting,value
CCCCCC[n+]1ccn(C)c1.O=S(=O)([N-]S(=O)(=O)C(F)(F)F)C(F)(F)F,molar heat capacity at constant pressure,"318.17 K, Large sample (1 g) DSC",668 ± 35 J/K/mol
same,molar heat capacity at constant pressure,[1],672 ± 35 J/K/mol
same,molar heat capacity at constant pressure,"323.13 K, Large sample (1 g) DSC",672 ± 35 J/K/mol
same,molar heat capacity at constant pressure,"323.15 K, modulated-temperature differential scanning calorimetry MDSC",680 ± 34 J/K/mol
same,molar heat capacity at constant pressure,[2],675 ± 35 J/K/mol
same,molar heat capacity at constant pressure,"328.14 K, Large sample (1 g) DSC",673 ± 35 J/K/mol
same,molar heat capacity at constant pressure,[3],682 ± 34 J/K/mol
same,molar heat capacity at constant pressure,[4],679 ± 35 J/K/mol
same,molar heat capacity at constant pressure,[5],685 ± 34 J/K/mol
same,molar heat capacity at constant pressure,"333.16 K, Large sample (1 g) DSC",673 ± 35 J/K/mol
same,molar heat capacity at constant pressure,[6],681 ± 35 J/K/mol
same,molar heat capacity at constant pressure,[7],688 ± 34 J/K/mol
same,molar heat capacity at constant pressure,"338.16 K, Large sample (1 g) DSC",675 ± 35 J/K/mol
same,molar heat capacity at constant pressure,[8],684 ± 36 J/K/mol
same,molar heat capacity at constant pressure,[9],689 ± 34 J/K/mol
same,molar heat capacity at constant pressure,"343.17 K, Large sample (1 g) DSC",676 ± 35 J/K/mol
same,molar heat capacity at constant pressure,[10],686 ± 36 J/K/mol
same,molar heat capacity at constant pressure,[11],693 ± 35 J/K/mol
same,molar heat capacity at constant pressure,[12],677 ± 35 J/K/mol
same,molar heat capacity at constant pressure,[13],688 ± 36 J/K/mol
same,molar heat capacity at constant pressure,"353.13 K, Large sample (1 g) DSC",680 ± 35 J/K/mol
same,molar heat capacity at constant pressure,[14],695 ± 35 J/K/mol
same,molar heat capacity at constant pressure,[15],691 ± 36 J/K/mol
same,molar heat capacity at constant pressure,"358.12 K, Large sample (1 g) DSC",682 ± 35 J/K/mol
same,molar heat capacity at constant pressure,[16],698 ± 35 J/K/mol
same,molar heat capacity at constant pressure,[17],693 ± 36 J/K/mol
same,molar heat capacity at constant pressure,[18],701 ± 35 J/K/mol
same,molar heat capacity at constant pressure,"363.16 K, Large sample (1 g) DSC",686 ± 36 J/K/mol
same,molar heat capacity at constant pressure,[19],696 ± 36 J/K/mol
same,molar heat capacity at constant pressure,[20],705 ± 35 J/K/mol
same,molar heat capacity at constant pressure,"368.18 K, Large sample (1 g) DSC",689 ± 36 J/K/mol
same,molar heat capacity at constant pressure,[21],700 ± 36 J/K/mol
same,molar heat capacity at constant pressure,[22],691 ± 36 J/K/mol
same,molar heat capacity at constant pressure,[23],706 ± 35 J/K/mol
same,molar heat capacity at constant pressure,[24],703 ± 37 J/K/mol
same,molar heat capacity at constant pressure,"378.13 K, Large sample (1 g) DSC",694 ± 36 J/K/mol
same,molar heat capacity at constant pressure,[25],709 ± 35 J/K/mol
same,molar heat capacity at constant pressure,[26],706 ± 37 J/K/mol
same,molar heat capacity at constant pressure,[27],711 ± 36 J/K/mol
same,molar heat capacity at constant pressure,"383.17 K, Large sample (1 g) DSC",697 ± 36 J/K/mol
same,molar heat capacity at constant pressure,[28],709 ± 37 J/K/mol
same,molar heat capacity at constant pressure,[29],714 ± 36 J/K/mol
same,molar heat capacity at constant pressure,"388.16 K, Large sample (1 g) DSC",698 ± 36 J/K/mol
same,molar heat capacity at constant pressure,[30],713 ± 37 J/K/mol
same,molar heat capacity at constant pressure,"393.14 K, Large sample (1 g) DSC",703 ± 37 J/K/mol
same,molar heat capacity at constant pressure,[31],716 ± 36 J/K/mol
same,molar heat capacity at constant pressure,[32],716 ± 37 J/K/mol
same,molar heat capacity at constant pressure,[33],718 ± 36 J/K/mol
same,molar heat capacity at constant pressure,"398.18 K, Large sample (1 g) DSC",706 ± 37 J/K/mol
same,molar heat capacity at constant pressure,[34],720 ± 37 J/K/mol
same,molar heat capacity at constant pressure,[35],720 ± 36 J/K/mol
same,molar heat capacity at constant pressure,"403.16 K, Large sample (1 g) DSC",709 ± 37 J/K/mol
same,molar heat capacity at constant pressure,[36],725 ± 38 J/K/mol
same,molar heat capacity at constant pressure,"408.13 K, Large sample (1 g) DSC",712 ± 37 J/K/mol
same,molar heat capacity at constant pressure,[37],723 ± 36 J/K/mol
same,molar heat capacity at constant pressure,[38],728 ± 38 J/K/mol
same,molar heat capacity at constant pressure,[39],723 ± 36 J/K/mol
same,molar heat capacity at constant pressure,"413.16 K, Large sample (1 g) DSC",716 ± 37 J/K/mol
same,molar heat capacity at constant pressure,[40],732 ± 38 J/K/mol
same,molar heat capacity at constant pressure,"418.13 K, Large sample (1 g) DSC",719 ± 37 J/K/mol
same,molar heat capacity at constant pressure,[41],736 ± 38 J/K/mol
same,molar heat capacity at constant pressure,[42],739 ± 38 J/K/mol
CCCCn1cc[n+](C)c1.O=S(=O)([O-])C(F)(F)F [1-butyl-3-methylimidazolium trifluoromethanesulfonate],molar heat capacity at constant pressure,"313.16 K, Large sample (1 g) DSC",448 ± 23 J/K/mol
same,molar heat capacity at constant pressure,"315.15 K, Small sample (50 mg) DSC",449 ± 23 J/K/mol
same,molar heat capacity at constant pressure,"318.15 K, Large sample (1 g) DSC",449 ± 23 J/K/mol
same,molar heat capacity at constant pressure,[1],451 ± 23 J/K/mol
same,molar heat capacity at constant pressure,"323.14 K, Large sample (1 g) DSC",451 ± 23 J/K/mol
same,molar heat capacity at constant pressure,[2],452 ± 23 J/K/mol
same,molar heat capacity at constant pressure,"328.12 K, Large sample (1 g) DSC",451 ± 23 J/K/mol
same,molar heat capacity at constant pressure,[3],443 ± 22 J/K/mol
same,molar heat capacity at constant pressure,[4],454 ± 24 J/K/mol
same,molar heat capacity at constant pressure,[5],446 ± 22 J/K/mol
same,molar heat capacity at constant pressure,"333.17 K, Large sample (1 g) DSC",450 ± 23 J/K/mol
same,molar heat capacity at constant pressure,[6],457 ± 24 J/K/mol
same,molar heat capacity at constant pressure,"338.15 K, Large sample (1 g) DSC",453 ± 24 J/K/mol
same,molar heat capacity at constant pressure,[7],448 ± 22 J/K/mol
same,molar heat capacity at constant pressure,[8],460 ± 24 J/K/mol
same,molar heat capacity at constant pressure,"343.14 K, Large sample (1 g) DSC",455 ± 24 J/K/mol
same,molar heat capacity at constant pressure,[9],450 ± 23 J/K/mol
same,molar heat capacity at constant pressure,[10],462 ± 24 J/K/mol
same,molar heat capacity at constant pressure,[11],453 ± 23 J/K/mol
same,molar heat capacity at constant pressure,[12],456 ± 24 J/K/mol
same,molar heat capacity at constant pressure,[13],465 ± 24 J/K/mol
same,molar heat capacity at constant pressure,[14],454 ± 23 J/K/mol
same,molar heat capacity at constant pressure,"353.18 K, Large sample (1 g) DSC",459 ± 24 J/K/mol
same,molar heat capacity at constant pressure,[15],468 ± 24 J/K/mol
same,molar heat capacity at constant pressure,"358.13 K, Large sample (1 g) DSC",463 ± 24 J/K/mol
same,molar heat capacity at constant pressure,[16],458 ± 23 J/K/mol
same,molar heat capacity at constant pressure,[17],470 ± 24 J/K/mol
same,molar heat capacity at constant pressure,"363.14 K, Large sample (1 g) DSC",467 ± 24 J/K/mol
same,molar heat capacity at constant pressure,[18],460 ± 23 J/K/mol
same,molar heat capacity at constant pressure,[19],473 ± 25 J/K/mol
same,molar heat capacity at constant pressure,"368.14 K, Large sample (1 g) DSC",471 ± 24 J/K/mol
same,molar heat capacity at constant pressure,[20],463 ± 23 J/K/mol
same,molar heat capacity at constant pressure,[21],476 ± 25 J/K/mol
same,molar heat capacity at constant pressure,[22],472 ± 25 J/K/mol
same,molar heat capacity at constant pressure,[23],464 ± 23 J/K/mol
same,molar heat capacity at constant pressure,[24],479 ± 25 J/K/mol
same,molar heat capacity at constant pressure,"378.12 K, Large sample (1 g) DSC",474 ± 25 J/K/mol
same,molar heat capacity at constant pressure,[25],468 ± 23 J/K/mol
same,molar heat capacity at constant pressure,[26],481 ± 25 J/K/mol
same,molar heat capacity at constant pressure,[27],468 ± 23 J/K/mol
same,molar heat capacity at constant pressure,"383.16 K, Large sample (1 g) DSC",477 ± 25 J/K/mol
same,molar heat capacity at constant pressure,[28],484 ± 25 J/K/mol
same,molar heat capacity at constant pressure,"388.15 K, Large sample (1 g) DSC",479 ± 25 J/K/mol
same,molar heat capacity at constant pressure,[29],471 ± 24 J/K/mol
same,molar heat capacity at constant pressure,[30],487 ± 25 J/K/mol
same,molar heat capacity at constant pressure,"393.13 K, Large sample (1 g) DSC",482 ± 25 J/K/mol
same,molar heat capacity at constant pressure,[31],472 ± 24 J/K/mol
same,molar heat capacity at constant pressure,[32],489 ± 25 J/K/mol
same,molar heat capacity at constant pressure,[33],475 ± 24 J/K/mol
same,molar heat capacity at constant pressure,"398.16 K, Large sample (1 g) DSC",484 ± 25 J/K/mol
same,molar heat capacity at constant pressure,[34],492 ± 26 J/K/mol
same,molar heat capacity at constant pressure,"403.14 K, Large sample (1 g) DSC",487 ± 25 J/K/mol
same,molar heat capacity at constant pressure,[35],476 ± 24 J/K/mol
same,molar heat capacity at constant pressure,[36],495 ± 26 J/K/mol
same,molar heat capacity at constant pressure,[37],477 ± 24 J/K/mol
same,molar heat capacity at constant pressure,"408.17 K, Large sample (1 g) DSC",489 ± 25 J/K/mol
same,molar heat capacity at constant pressure,[38],498 ± 26 J/K/mol
same,molar heat capacity at constant pressure,"413.14 K, Large sample (1 g) DSC",491 ± 26 J/K/mol
same,molar heat capacity at constant pressure,[39],481 ± 24 J/K/mol
same,molar heat capacity at constant pressure,[40],500 ± 26 J/K/mol
same,molar heat capacity at constant pressure,"418.17 K, Large sample (1 g) DSC",494 ± 26 J/K/mol
same,molar heat capacity at constant pressure,[41],503 ± 26 J/K/mol
same,molar heat capacity at constant pressure,"423.14 K, Large sample (1 g) DSC",494 ± 26 J/K/mol
same,molar heat capacity at constant pressure,[42],506 ± 26 J/K/mol
